What was measured:
[1] = system: serum bile acids; experiment: Time to onset of activity of LUM001 on postprandial serum total bile acids (SBA) in beagle dogs; assay type: in vivo; conditions: dog SBA model, oral, 1 hour after feeding
Procedure: LUM001 was dissolved in water at concentrations that required the administration of 0.2 ml/kg of solution. Solutions were placed into gelatin capsules, Torpac Inc., size 13 Batch 594, East Hanover N.J., and administered orally.
Male beagle dogs were obtained from Covance Research Products, Cumberland Va. or Marshall Farms USA, Inc., North Rose N.Y. A total of 20 dogs, 1 to 5 years old, 6.8 to 15.6 kg body weight, were used in these experiments. The dogs were conditioned to a 12 hour light/dark cycle and maintained on a feeding restriction of 1 hour per day access to food (Richman Standard Certified Canine Diet #5007, PMI Nutrition, Inc., St. Louis Mo.) from 7 to 8 AM. They were trained to eat a special meal promptly within 20 minutes when presented (1 can. 397 g, Evanger's 100% Beef for Dogs, Evanger's Dog and Cat Food Co., Inc., Wheeling Ill., mixed with 50 g of sharp cheddar cheese.).
SBA was measured by an enzymatic assay. SBA values are expressed as […] of total bile acids/ml of serum.
To estimate the details of this plateau, 6 dogs were given a test meal and blood samples for SBA measurement were collected at −30, 0, 30, 60, 65, 70, 80, 90, 120, 180, 240, 360, 480, 720, 1410 and 1440 minutes from the time of feeding. Any remaining food was removed 20 min after it was first presented to the dogs. […]

[2] = system: Hepatic HMG-CoA Reductase; experiment: Hepatic HMG-CoA reductase activity assay, hamster liver microsomes; assay type: in vivo, golden Syrian hamster; conditions: 28 days
From the text: Male golden Syrian hamsters (126-147 gm) were obtained from Charles Rivers Laboratories and were single housed in a constant temperature environment with alternating 12-hour light and dark cycles. Hamsters were fed Teklad 7001 rodent meal chow at libitum for two weeks before the experimental studies began and switched to Teklad 7001 rodent meal chow supplemented with 0.24% cholesterol on day one of the 28-day experiment. Water was continuously available to the animals. Hamsters were assigned to groups in a manner that normalized each group by pretreatment body weights. SD-5613 was dissolved in an aqueous solution of 0.2% (w/v) Tween 80 and administered Q.D. by intragastric gavage between 9 a.m. and 10 a.m. each morning using a syringe fitted with a flexible feeding tube. Blood samples were collected after 14- and 28-day treatment periods by orbital sinus and cardiac puncture, respectively. Hamsters were anesthetized but not fasted prior to blood collections. Fecal samples were collected during a 48-hour period at the end of days 14 and 28 (i.e. days 13-14 and 27-28). Hamsters were sacrificed using carbon dioxide asphyxiation to obtain the following tissue samples: liver, kidneys, colon and cecum.
Homogenates of three gram liver tissue samples were prepared in 25 ml homogenization buffer [0.1 M potassium phosphate buffer, pH 7.2, containing 0.1 M sucrose, 50 mM KCl, 50 mM NaF, 5 mM ethylene glycol-bis(β-aminoethyl ether)-N,N,N′,N′-tetraacetic acid (EGTA), 1 mM EDTA, 3 mM dithiothreitol (DTIT), and 1 mM phenylmethylsulfonyl fluoride (PMSF)]. A microsomal fraction was prepared by centrifugation at 10,000×g for ten minutes. The supernatant was subjected to centrifugation at 105,000×g for two hours. The microsomal fraction was resuspended in a 0.1 M Na tetrapyrophosphate buffer (pH 10), with 50 mM NaF, and 1 mM EDTA, and subjected to centrifugation for one hour at 105,000×g. The microsomal fraction was resuspended in the homogenization buffer, and assayed for protein content by Coomassie Protein Plus Assay reagent.
Microsomes (200 μg) were preincubated for 15 minutes at 37° C. in a total volume of 225 μl buffer containing 0.1 M potassium phosphate (pH 7.4), 10 mM imidazole, 5 mM DTT, 10 mM EDTA, 3 mM NADP, 12 mM glucose-6-phosphate and 1 unit glucose-6-phosphate dehydrogenase (catalog number G4134, Sigma, St. Louis). The HMG-CoA reductase assay was initiated by the addition of 9 nmoles (0.5 μCi). DL-[-3^14C]-HMG-CoA (final assay volume was DL-3-[^14C]-250 μl). The mixture was incubated for 60 minutes at 37° C. after which the assay was stopped with 25 μl of 6 N HCl. [^3H]Mevalonic acid (0.1 μCi), used as an internal standard to correct for incomplete recovery, was added to the reaction mixture along with 3 mg of unlabeled mevalonic acid lactone. The mixture was then incubated for an additional 30 minutes at 37° C. The [^14C]mevalonate that was formed and converted into mevalonic acid lactone during both incubations was isolated by thin layer chromatography. Each lane was scraped into 3 ml of InstaGel XF (Packard, Meriden, Conn.) and read on a Beckman Scintillator Counter. Reagents unless noted otherwise were obtained from Sigma, St. Louis, Mo. Isotopes were obtained from NEN Life Science Products, Boston, Mass.

For CCCCC1(CCCC)CS(=O)(=O)c2ccc(N(C)C)cc2[C@@H](c2ccc(OCc3ccc(C[N+]45CCN(CC4)CC5)cc3)cc2)[C@H]1O [LUM001], the threshold dose [1] was 0.05 mg/kg, the “Hepatic HMG-CoA Reductase” value ([2]; 5 mg/kg/day) was 4.6 ± 0.4 pmol/mg-protein/min and the “Hepatic HMG-CoA Reductase, % change from vehicle group” value (from here on “Hepatic HMG-CoA Reductase, % change”) ([2]; 5 mg/kg/day) was “(+31) %”. The “Hepatic HMG-CoA Reductase” value ([2]; 15 mg/kg/day) was 16 ± 4 pmol/mg-protein/min, the “Hepatic HMG-CoA Reductase, % change” value ([2]; 15 mg/kg/day) was “(+346) %” and the “Hepatic HMG-CoA Reductase” value ([2]; 50 mg/kg/day) was 17 ± 4 pmol/mg-protein/min. For the same compound, the “Hepatic HMG-CoA Reductase, % change” value ([2]; 50 mg/kg/day) was “(+389) %”.
